Measured values from US20110263564A1, “PYRIDINE, BICYCLIC PYRIDINE AND RELATED ANALOGS AS SIRTUIN MODULATORS” (Sirtris Pharmaceuticals, Inc., priority 2008, published 2011).

Biological target: T1, SIRT1 (Homo sapiens, UniProt Q96EB6)
T1 sequence (Q96EB6 1-747): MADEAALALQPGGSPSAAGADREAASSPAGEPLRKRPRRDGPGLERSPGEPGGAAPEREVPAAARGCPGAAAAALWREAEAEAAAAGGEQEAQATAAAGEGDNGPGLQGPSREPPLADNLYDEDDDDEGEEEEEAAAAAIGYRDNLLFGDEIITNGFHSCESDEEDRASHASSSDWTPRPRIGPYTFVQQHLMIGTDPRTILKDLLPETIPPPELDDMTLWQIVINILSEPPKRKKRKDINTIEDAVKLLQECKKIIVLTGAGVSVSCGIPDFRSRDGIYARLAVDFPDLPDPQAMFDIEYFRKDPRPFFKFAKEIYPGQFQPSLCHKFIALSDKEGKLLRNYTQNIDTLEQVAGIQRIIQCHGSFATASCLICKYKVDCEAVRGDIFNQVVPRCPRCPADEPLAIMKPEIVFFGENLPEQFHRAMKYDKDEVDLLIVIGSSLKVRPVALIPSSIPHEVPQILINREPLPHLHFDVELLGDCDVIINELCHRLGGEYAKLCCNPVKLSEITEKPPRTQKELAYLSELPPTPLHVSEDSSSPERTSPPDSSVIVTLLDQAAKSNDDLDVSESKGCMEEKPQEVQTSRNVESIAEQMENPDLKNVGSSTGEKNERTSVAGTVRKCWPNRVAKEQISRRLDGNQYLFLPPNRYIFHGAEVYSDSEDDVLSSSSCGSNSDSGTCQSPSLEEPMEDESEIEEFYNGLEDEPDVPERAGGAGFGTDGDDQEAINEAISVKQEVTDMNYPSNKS
Assay: Mass spectrometry based assay of SIRT1 activity (deacetylation of a p53-based acetylated peptide)
Format: biochemical
Conditions: 10 nM SIRT1, 0.5 μM peptide substrate, 120 μM βNAD+, 25 minutes at 25° C.; for Emax: read-out: % FOLD ACT. (percent maximum fold activation)
Text: A mass spectrometry based assay was used to identify modulators of SIRT1 activity. The mass spectrometry based assay utilizes a peptide having 20 amino acid residues as follows: Ac-EE-K(biotin)-GQSTSSHSK(Ac)NleSTEG-K(5TMR)-EE-NH2 (SEQ ID NO: 1) wherein K(Ac) is an acetylated lysine residue and Nle is a norleucine. The peptide is labeled with the fluorophore 5TMR (excitation 540 nm/emission 580 nm) at the C-terminus. The sequence of the peptide substrate is based on p53 with several modifications. In addition, the methionine residue naturally present in the sequence was replaced with the norleucine because the methionine may be susceptible to oxidation during synthesis and purification.
The mass spectrometry assay is conducted as follows: 0.5 μM peptide substrate and 120 μM βNAD^+ is incubated with 10 nM SIRT1 for 25 minutes at 25° C. in a reaction buffer (50 mM Tris-acetate pH 8, 137 mM NaCl, 2.7 mM KCl, 1 mM MgCl2, 5 mM DTT, 0.05% BSA). Test compounds may be added to the reaction as described above. […] After the 25 minute incubation with SIRT1, 10 μL of 10% formic acid is added to stop the reaction. Reactions are sealed and frozen for later mass spec analysis. Determination of the mass of the substrate peptide allows for precise determination of the degree of acetylation (i.e. starting material) as compared to deacetylated peptide (product).
A control for inhibition of sirtuin activity is conducted by adding 1 μL of 500 mM nicotinamide as a negative control at the start of the reaction (e.g., permits determination of maximum sirtuin inhibition). A control for activation of sirtuin activity is conducted using 10 nM of sirtuin protein, with 1 μL of DMSO in place of compound, to determine the amount of deacetylation of the substrate at a given timepoint within the linear range of the assay. This timepoint is the same as that used for test compounds and, within the linear range, the endpoint represents a change in velocity.
For the above assay, SIRT1 protein was expressed and purified as follows. […] The protein was expressed by induction with 1 mM IPTG as an N-terminal His-tag fusion protein at 18° C. overnight and harvested at 30,000×g. Cells were lysed with lysozyme in lysis buffer (50 mM Tris-HCl, 2 mM Tris[2-carboxyethyl]phosphine (TCEP), 10 μM ZnCl2, 200 mM NaCl) and further treated with sonication for 10 min for complete lysis. The protein was purified over a Ni-NTA column (Amersham) and fractions containing pure protein were pooled, concentrated and run over a sizing column (Sephadex S200 26/60 global). The peak containing soluble protein was collected and run on an Ion-exchange column (MonoQ). Gradient elution (200 mM-500 mM NaCl) yielded pure protein. This protein was concentrated and dialyzed against dialysis buffer (20 mM Tris-HCl, 2 mM TCEP) overnight. The protein was aliquoted and frozen at −80° C. until further use.
Sirtuin modulating compounds that activated SIRT1 were identified using the assay described above and are shown below in Table 1 for compounds of Formula (III)). The EC1.5 values represent the concentration of test compounds that result in 150% activation of SIRT1. The EC1.5 values for the activating compounds in Table 1 are represented by A (EC1.5<10.0 μM), B (EC1.5 10-25 μM), C (EC1.5>25 μM). The percent maximum fold activation is represented by A (Fold activation>200%) or B (Fold Activation<200%); “NT” means not tested; “ND” mean not determinable.

EC1.5 (concentration of test compound that results in 150% activation of SIRT1) | Emax | SMILES
A (EC1.5<10.0 μM) | > 200% | O=C(NC1CCCc2ccc(-c3cccc(C(F)(F)F)c3)nc21)c1cccc(N2CCOCC2)n1 (stereo not drawn) [Compound 236]
C (EC1.5>25 μM) | – | O=C(NC1CCCc2ccc(-c3cccnc3)nc21)c1cnccn1 (stereo not drawn) [Compound 246]
C (EC1.5>25 μM) | – | O=C(NC1CCCc2ccc(-c3ccncc3)nc21)c1cnccn1 (stereo not drawn) [Compound 247]
C (EC1.5>25 μM) | – | Cc1cc(-c2ccc3c(n2)C(NC(=O)c2cnccn2)CCC3)ccn1 (stereo not drawn) [Compound 249]
C (EC1.5>25 μM) | – | CS(=O)(=O)c1cccc(-c2ccc3c(n2)C(NC(=O)c2cnccn2)CCC3)c1 (stereo not drawn) [Compound 250]
B (EC1.5 10-25 μM) | > 200% | O=C(NC1CCCc2ccc(-c3cccc(OC(F)(F)F)c3)nc21)c1cnccn1 (stereo not drawn) [Compound 252]
C (EC1.5>25 μM) | – | O=C(NC1CCCc2ccc(-c3ccc(N4CCCC4)cc3)nc21)c1cnccn1 (stereo not drawn) [Compound 259]
C (EC1.5>25 μM) | – | O=C(NC1CCCc2ccc(-c3cccc(N4CCCC4)c3)nc21)c1cnccn1 (stereo not drawn) [Compound 260]
C (EC1.5>25 μM) | – | O=C(NC1CCCc2ccc(-c3cccc(N4CCOCC4)c3)nc21)c1cnccn1 (stereo not drawn) [Compound 261]

The next lines start with the compound.

SMILES | EC1.5 (concentration of test compound that results in 150% activation of SIRT1) | Emax
O=C(NC1CCCc2ccc(-c3cccc(C(F)(F)F)c3)nc21)c1cccc(CN2CCCC2)c1 (stereo not drawn) [Compound 237] | B (EC1.5 10-25 μM) | < 200%
O=C(NC1CCCc2ccc(-c3cccc(C(F)(F)F)c3)nc21)c1ccnc(CN2CCOCC2)c1 (stereo not drawn) [Compound 238] | C (EC1.5>25 μM) | –
O=C(NC1CCCc2ccc(-c3cccc(C(F)(F)F)c3)nc21)c1ccnc(CN2CCCC2)c1 (stereo not drawn) [Compound 239] | C (EC1.5>25 μM) | –
O=C(NC1CCCc2ccc(-c3cccc(C(F)(F)F)c3)nc21)c1ccc(CN2CCOCC2)nc1 (stereo not drawn) [Compound 241] | C (EC1.5>25 μM) | –
O=C(NC1CCCc2ccc(-c3cccc(C(F)(F)F)c3)nc21)c1cccc(C2CCNC2)c1 (stereo not drawn) [Compound 242] | A (EC1.5<10.0 μM) | > 200%
O=C(NC1CCCc2ccc(-c3cccc(C(F)(F)F)c3)nc21)c1cccnc1OCC(O)CO (stereo not drawn) [Compound 243] | C (EC1.5>25 μM) | –
O=C(NC1CCCc2ccc(-c3cccc(C(F)(F)F)c3)nc21)c1ccnc(OCC(O)CO)c1 (stereo not drawn) [Compound 244] | A (EC1.5<10.0 μM) | > 200%
Cc1ccc(-c2ccc3c(n2)C(NC(=O)c2cnccn2)CCC3)cn1 (stereo not drawn) [Compound 248] | C (EC1.5>25 μM) | –
O=C(NC1CCCc2ccc(-c3cc(C(F)(F)F)ccc3F)nc21)c1cnccn1 (stereo not drawn) [Compound 251] | A (EC1.5<10.0 μM) | > 200%
O=C(NC1CCCc2ccc(-c3ccccc3C(F)(F)F)nc21)c1cnccn1 (stereo not drawn) [Compound 253] | C (EC1.5>25 μM) | –
O=C(NC1CCCc2ccc(-c3ccc(F)c(C(F)(F)F)c3)nc21)c1cnccn1 (stereo not drawn) [Compound 254] | A (EC1.5<10.0 μM) | < 200%
O=C(NC1CCCc2ccc(-c3cccc(C(F)(F)F)c3F)nc21)c1cnccn1 (stereo not drawn) [Compound 256] | C (EC1.5>25 μM) | –
O=C(NC1CCCc2ccc(-c3cccnc3O)nc21)c1cnccn1 (stereo not drawn) [Compound 257] | C (EC1.5>25 μM) | –
CC(C)c1ccccc1-c1ccc2c(n1)C(NC(=O)c1cnccn1)CCC2 (stereo not drawn) [Compound 258] | C (EC1.5>25 μM) | –
